One test has as its system Eimeria acervulina. In words: Anticoccidial activity against Eimeria acervulina at 100 ppm. In kind it is functional.
The target in test [1] is cGMP-dependent protein kinase (Eimeria tenella, UniProt Q8MMZ8). The test can be described thus: Inhibition of Eimeria tenella PKG.
The next test relates to Eimeria tenella. In words: Anticoccidial activity against Eimeria tenella at 100 ppm. In kind it is functional.

Molecules are shown by their SMILES.

Chain of cGMP-dependent protein kinase (Q8MMZ8 whole entry): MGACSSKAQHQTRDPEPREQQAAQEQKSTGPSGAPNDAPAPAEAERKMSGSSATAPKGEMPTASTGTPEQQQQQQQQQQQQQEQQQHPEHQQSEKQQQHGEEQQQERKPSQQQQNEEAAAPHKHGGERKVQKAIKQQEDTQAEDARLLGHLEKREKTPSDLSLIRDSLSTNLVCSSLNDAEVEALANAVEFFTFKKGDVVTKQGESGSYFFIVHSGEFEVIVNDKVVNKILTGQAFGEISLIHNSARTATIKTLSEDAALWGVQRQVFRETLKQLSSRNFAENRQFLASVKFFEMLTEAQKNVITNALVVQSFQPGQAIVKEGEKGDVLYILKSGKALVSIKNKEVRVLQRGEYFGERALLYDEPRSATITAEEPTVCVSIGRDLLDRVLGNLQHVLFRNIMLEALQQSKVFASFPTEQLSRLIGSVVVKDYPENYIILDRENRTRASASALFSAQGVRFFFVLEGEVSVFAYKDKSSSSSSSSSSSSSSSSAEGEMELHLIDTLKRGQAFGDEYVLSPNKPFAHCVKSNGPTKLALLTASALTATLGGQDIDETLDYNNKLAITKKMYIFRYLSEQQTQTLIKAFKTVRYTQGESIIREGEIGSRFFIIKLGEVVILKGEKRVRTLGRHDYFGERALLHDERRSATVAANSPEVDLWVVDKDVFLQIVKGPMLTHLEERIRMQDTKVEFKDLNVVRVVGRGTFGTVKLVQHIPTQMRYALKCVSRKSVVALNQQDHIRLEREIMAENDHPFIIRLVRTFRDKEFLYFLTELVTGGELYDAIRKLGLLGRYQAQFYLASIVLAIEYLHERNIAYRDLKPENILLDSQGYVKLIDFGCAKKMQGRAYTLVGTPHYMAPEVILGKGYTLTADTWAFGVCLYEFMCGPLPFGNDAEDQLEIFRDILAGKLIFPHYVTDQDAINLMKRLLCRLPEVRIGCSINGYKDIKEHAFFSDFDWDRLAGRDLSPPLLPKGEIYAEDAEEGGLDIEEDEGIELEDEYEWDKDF

For orientation: IC50 means the concentration needed to halve the response being measured. In the case of `CCN(C)CCCc1cc(-c2ccncc2)c(-c2ccc(F)cc2)[nH]1`, the Activity in the test with Eimeria acervulina and in the test with Eimeria tenella was below 50% in each case. Further, the IC50 in test [1] was found to be 4.1 nM.

For the molecule `O=C(OCc1ccccc1)N1CCCC1c1cc(-c2ccncc2)c(-c2ccc(F)cc2)[nH]1` (centres undefined), the Activity in the test with Eimeria acervulina and in the test with Eimeria tenella was below 50% throughout. For the same molecule, the IC50 in test [1] worked out at 2.7 nM.

Molecule `CN(C)Cc1cc(-c2ccncc2)c(-c2ccc(F)cc2)[nH]1` returned an Activity in the test with Eimeria acervulina below 50%. The IC50 in test [1] came to 0.35 nM.

On to `CN(C)CCc1cc(-c2ccncc2)c(-c2ccc(F)cc2)[nH]1`, for which the Activity in the test with Eimeria acervulina and in the test with Eimeria tenella was 50% each time. Also, the IC50 in test [1] turned out to be 2.5 nM.

On to `Fc1ccc(-c2[nH]c(CN3CCC3)cc2-c2ccncc2)cc1`, for which the Activity in the test on Eimeria acervulina and with Eimeria tenella was below 50% in each case. 1.3 nM corresponded to half-maximal inhibition in test [1] (IC50).

For the molecule `O=S(=O)(c1ccc(F)cc1)N1CCCC1c1cc(-c2ccncc2)c(-c2ccc(F)cc2)[nH]1` (centres undefined), the Activity in the test on Eimeria acervulina and in the test with Eimeria tenella was below 50% throughout. In test [1], this molecule registered an IC50 of 1.5 nM.

For the molecule `CN1CCCC1c1cc(-c2ccncc2)c(-c2ccc(F)cc2)[nH]1` (centres undefined), the Activity is 80% in the test with Eimeria acervulina and below 50% with Eimeria tenella. Half-maximal inhibition in test [1] (IC50) required 1 nM.

In the case of `Fc1ccc(-c2[nH]c(CN3CCOCC3)cc2-c2ccncc2)cc1`, the Activity in the test on Eimeria acervulina and in the test on Eimeria tenella was below 50% in each case. Besides, the IC50 in test [1] worked out at 7.6 nM.

In the case of `OCC1CCN(Cc2cc(-c3ccncc3)c(-c3ccc(F)cc3)[nH]2)CC1`, the Activity in the test on Eimeria acervulina and in the test with Eimeria tenella was below 50% each time. Also, the IC50 in test [1] amounted to 13 nM.

On to `C[C@H](O)CN1CCCC1c1cc(-c2ccncc2)c(-c2ccc(F)cc2)[nH]1` (some centres undefined), for which the Activity in the test on Eimeria acervulina is listed as below 50%; with Eimeria tenella, 80%. The molecule also returned an IC50 in test [1] of 2.8 nM.

On to `Fc1ccc(-c2[nH]c(C3CCCN3)cc2-c2ccncc2)cc1` (centres undefined), for which the Activity was below 50% with Eimeria acervulina and 50% in the test with Eimeria tenella. In test [1], this molecule registered an IC50 of 3.1 nM.

Consider `CNC(=O)N1CCCC1c1cc(-c2ccncc2)c(-c2ccc(F)cc2)[nH]1` (centres undefined), for which the Activity in the test on Eimeria acervulina and in the test on Eimeria tenella was below 50% each time. Besides, in test [1], inhibition was half-maximal at 2.3 nM (IC50).

For `CN(C)C(=O)Cc1cc(-c2ccncc2)c(-c2ccc(F)cc2)[nH]1`, the Activity in the test with Eimeria acervulina and in the test with Eimeria tenella was below 50% each time. The IC50 in test [1] is 4.1 nM.

For `Fc1ccc(-c2[nH]c(CN3CCCCC3)cc2-c2ccncc2)cc1`, the Activity in the test on Eimeria acervulina and with Eimeria tenella was below 50% throughout. The IC50 in test [1] stood at 3.7 nM.

Regarding `C[C@@H](O)CN1CCCC1c1cc(-c2ccncc2)c(-c2ccc(F)cc2)[nH]1` (some centres undefined), the Activity in the test on Eimeria acervulina and with Eimeria tenella was below 50% in each case. Further, 3.3 nM corresponded to half-maximal inhibition in test [1] (IC50).

`CC(C)C(c1cc(-c2ccncc2)c(-c2ccc(F)cc2)[nH]1)N(C)C` (centres undefined): the figures for the Activity in the test with Eimeria acervulina and in the test on Eimeria tenella were 80% and 50%, respectively. In addition, it took 0.71 nM to reach half-maximal inhibition in test [1] (IC50).

With `CN1CCCCC1c1cc(-c2ccncc2)c(-c2ccc(F)cc2)[nH]1` (centres undefined), the Activity with Eimeria acervulina and in the test with Eimeria tenella was below 50% in each case. In test [1], this molecule gave an IC50 of 2.7 nM.

As for `OCCN1CCCC1c1cc(-c2ccncc2)c(-c2ccc(F)cc2)[nH]1` (centres undefined), the Activity in the test with Eimeria acervulina and in the test on Eimeria tenella was below 50% throughout. It took 2.1 nM to reach half-maximal inhibition in test [1] (IC50).

Regarding `O=C(O)Cc1cc(-c2ccncc2)c(-c2ccc(F)cc2)[nH]1`, the Activity in the test on Eimeria acervulina and in the test on Eimeria tenella was below 50% each time. This molecule also registered an IC50 in test [1] above 1000 nM.

As to `CCOC(=O)c1cc(-c2ccncc2)c(-c2ccc(F)cc2)[nH]1`, the Activity in the test on Eimeria acervulina and with Eimeria tenella was below 50% in each case. Also, the IC50 in test [1] is 430 nM.

The values are drawn from ChEMBL document CHEMBL1147009, “Synthesis and SAR studies of diarylpyrrole anticoccidial agents” (Bioorg Med Chem Lett, 2006).
